Assay results: ChEMBL document CHEMBL3044718, “Effect of phenolic compounds on growth and ligninolytic enzyme production in Botryosphaeria isolates” (2013)
≈ marks a conversion by molar mass, not a printed value. Calls of active or inactive are those of the source. No cut-off for these calls is given here.

Experiments:
Botryosphaeria dothidea [1] = assay: Decrease in Botryosphaeria dothidea ligninolytic enzyme production assessed as laccase activity using ABTS as substrate at 5 mM measured at 28 degC after 4 days; assay type: functional
Diplodia seriata [2] = assay: Decrease in Diplodia seriata (Schwein.) Shoemaker mycelium biomass production measured at 28 degC after 4 days by gravimetric analysis; assay type: functional
Botryosphaeria dothidea [3] = assay: Decrease in Botryosphaeria dothidea ligninolytic enzyme production assessed as laccase activity using ABTS as substrate measured at 28 degC after 4 days; assay type: functional, organism-based
Lasiodiplodia theobromae [4] = assay: Decrease in Lasiodiplodia theobromae ligninolytic enzyme production assessed as pectinase activity using pectin as substrate at 25 mM measured at 28 degC after 4 days; assay type: functional; conditions: 96 h
Lasiodiplodia theobromae [5] = assay: Decrease in Lasiodiplodia theobromae mycelium biomass production measured at 28 degC after 4 days by gravimetric analysis; assay type: functional
Diplodia seriata [6] = assay: Inhibition of Diplodia seriata (Schwein.) Shoemaker mycelium growth measured at 28 degC after 4 days; assay type: functional
Lasiodiplodia theobromae [7] = assay: Inhibition of Lasiodiplodia theobromae mycelium growth measured at 28 degC after 4 days; assay type: functional
Neofusicoccum ribis [8] = assay: Inhibition of Neofusicoccum ribis mycelium growth at 25 mM measured at 28 degC after 4 days; assay type: functional; conditions: 96 h, read-out: GI
Diplodia seriata [9] = assay: Inhibition of Diplodia seriata (Schwein.) Shoemaker mycelium growth at 15 mM measured at 28 degC after 4 days; assay type: functional, organism-based
Lasiodiplodia theobromae [10] = assay: Inhibition of Lasiodiplodia theobromae mycelium growth at 25 mM measured at 28 degC after 4 days; assay type: functional; conditions: 96 h, read-out: GI
Botryosphaeria dothidea [11] = assay: Decrease in Botryosphaeria dothidea ligninolytic enzyme production assessed as pectinase activity using pectin as substrate at 1 mM measured at 28 degC after 4 days; assay type: functional, organism-based
Neofusicoccum ribis [12] = assay: Decrease in Neofusicoccum ribis ligninolytic enzyme production assessed as laccase activity using ABTS as substrate at 1 mM measured at 28 degC after 4 days; assay type: functional; conditions: 96 h
Neofusicoccum ribis [13] = assay: Inhibition of Neofusicoccum ribis mycelium growth measured at 28 degC after 4 days; assay type: functional
Neofusicoccum ribis [14] = assay: Decrease in Neofusicoccum ribis ligninolytic enzyme production assessed as pectinase activity using pectin as substrate measured at 28 degC after 4 days; assay type: functional, organism-based
Botryosphaeria dothidea [15] = assay: Inhibition of Botryosphaeria dothidea mycelium growth measured at 28 degC after 4 days; assay type: functional
Lasiodiplodia theobromae [16] = assay: Decrease in Lasiodiplodia theobromae ligninolytic enzyme production assessed as laccase activity using ABTS as substrate at 1 mM measured at 28 degC after 4 days; assay type: functional; conditions: 96 h
Botryosphaeria dothidea [17] = assay: Decrease in Botryosphaeria dothidea ligninolytic enzyme production assessed as laccase activity using ABTS as substrate at 15 mM measured at 28 degC after 4 days; assay type: functional, organism-based
Neofusicoccum ribis [18] = assay: Decrease in Neofusicoccum ribis mycelium biomass production at 25 mM measured at 28 degC after 4 days by gravimetric analysis; assay type: functional; conditions: 96 h
Neofusicoccum ribis [19] = assay: Inhibition of Neofusicoccum ribis mycelium growth at 20 mM measured at 28 degC after 4 days; assay type: functional, organism-based
Lasiodiplodia theobromae [20] = assay: Inhibition of Lasiodiplodia theobromae mycelium growth at 15 mM measured at 28 degC after 4 days; assay type: functional; conditions: 96 h, read-out: GI
Diplodia seriata [21] = assay: Decrease in Diplodia seriata (Schwein.) Shoemaker ligninolytic enzyme production assessed as pectinase activity using pectin as substrate at 15 mM measured at 28 degC after 4 days; assay type: functional, organism-based
Botryosphaeria dothidea [22] = assay: Decrease in Botryosphaeria dothidea ligninolytic enzyme production assessed as laccase activity using ABTS as substrate at 1 mM measured at 28 degC after 4 days; assay type: functional
Botryosphaeria dothidea [23] = assay: Inhibition of Botryosphaeria dothidea mycelium growth at 25 mM measured at 28 degC after 4 days; assay type: functional; conditions: 96 h, read-out: GI
Diplodia seriata [24] = assay: Inhibition of Diplodia seriata (Schwein.) Shoemaker mycelium growth at 10 mM measured at 28 degC after 4 days; assay type: functional, organism-based
Diplodia seriata [25] = assay: Decrease in Diplodia seriata (Schwein.) Shoemaker ligninolytic enzyme production assessed as laccase activity using ABTS as substrate at 1 mM measured at 28 degC after 4 days; assay type: functional; conditions: 96 h
Botryosphaeria dothidea [26] = assay: Inhibition of Botryosphaeria dothidea mycelium growth at 10 mM measured at 28 degC after 4 days; assay type: functional, organism-based
Diplodia seriata [27] = assay: Inhibition of Diplodia seriata (Schwein.) Shoemaker mycelium growth at 25 mM measured at 28 degC after 4 days; assay type: functional; conditions: 96 h, read-out: GI
Botryosphaeria dothidea [28] = assay: Inhibition of Botryosphaeria dothidea mycelium growth at 20 mM measured at 28 degC after 4 days; assay type: functional, organism-based
Lasiodiplodia theobromae [29] = assay: Inhibition of Lasiodiplodia theobromae mycelium growth at 20 mM measured at 28 degC after 4 days; assay type: functional; conditions: 96 h, read-out: GI
Neofusicoccum ribis [30] = assay: Inhibition of Neofusicoccum ribis mycelium growth at 15 mM measured at 28 degC after 4 days; assay type: functional, organism-based
Diplodia seriata [31] = assay: Decrease in Diplodia seriata (Schwein.) Shoemaker ligninolytic enzyme production assessed as pectinase activity using pectin as substrate at 1 mM measured at 28 degC after 4 days; assay type: functional, organism-based
Botryosphaeria dothidea [32] = assay: Decrease in Botryosphaeria dothidea ligninolytic enzyme production assessed as laccase activity using ABTS as substrate at 25 mM measured at 28 degC after 4 days; assay type: functional; conditions: 96 h
Phellinus tremulae = assay: Inhibition of Phellinus tremulae mycelium growth; assay type: functional

| Compound | inhibition (INH) (Diplodia seriata [2]) [%] | inhibition (Botryosphaeria dothidea [3]) | inhibition at 25000 µM (Lasiodiplodia theobromae [4]) [%] | inhibition (INH) (Lasiodiplodia theobromae [5]) [%] | MIC (Diplodia seriata [6]; 96 h) [mM] | MIC (Lasiodiplodia theobromae [7]; 96 h) [mM] | inhibition of growth at 25000 µM (Neofusicoccum ribis [8]) [%] | growth inhibition (GI) (Diplodia seriata [9]) | inhibition of growth at 25000 µM (Lasiodiplodia theobromae [10]) [%] | inhibition (Botryosphaeria dothidea [11]) | MIC (Neofusicoccum ribis [13]; 96 h) [mM] | inhibition (Neofusicoccum ribis [14]) | MIC (Botryosphaeria dothidea [15]; 96 h) [mM] | inhibition at 1000 µM (Lasiodiplodia theobromae [16]) [%] | inhibition at 25000 µM (Neofusicoccum ribis [18]) [%] | growth inhibition (GI) (Neofusicoccum ribis [19]) | other results |
| --- | --- | --- | --- | --- | --- | --- | --- | --- | --- | --- | --- | --- | --- | --- | --- | --- | --- |
| COc1cc(/C=C/C(=O)O)ccc1O [FERULATE] | 58 | Active | 57 | 58 | 5 (≈ 971 µg/mL) | 5 (≈ 971 µg/mL) | 74 | Active | 81 | inactive | 5 (≈ 971 µg/mL) | inactive | 5 (≈ 971 µg/mL) | 82 |  |  | inhibition at 5000 µM (Botryosphaeria dothidea [1]; 96 h): 90%; inhibition at 1000 µM (Neofusicoccum ribis [12]): 82% |
| O=C(O)c1ccccc1O [SALICYLIC ACID] | 58 | Active | 57 | 58 | 5 (≈ 691 µg/mL) | 5 (≈ 691 µg/mL) |  | Active | 100 | inactive | 5 (≈ 691 µg/mL) | inactive | 5 (≈ 691 µg/mL) | 58 | 50 | Active | inhibition (Botryosphaeria dothidea [17]): Active |
| COc1ccccc1O [GUAIACOL] | 58 | Active | 57 | 58 | 5 (≈ 621 µg/mL) | 5 (≈ 621 µg/mL) |  | Active |  |  | 5 (≈ 621 µg/mL) | inactive | 5 (≈ 621 µg/mL) | 58 |  | Active | inhibition of growth at 15000 µM (Lasiodiplodia theobromae [20]): 100%; inhibition (Diplodia seriata [21]): Active; inhibition (Botryosphaeria dothidea [22]): inactive |
| COc1cc(C(=O)O)ccc1O [VANILLIC ACID] | 58 | Active | 57 | 58 | 5 (≈ 841 µg/mL) | 5 (≈ 841 µg/mL) | 83 | Active | 52 | inactive | 5 (≈ 841 µg/mL) | inactive | 5 (≈ 841 µg/mL) | 58 | 50 |  | inhibition (Botryosphaeria dothidea [17]): Active; inhibition (Botryosphaeria dothidea [1]): inactive; inhibition of growth at 25000 µM (Botryosphaeria dothidea [23]): 93% |
| O=C(O)/C=C/c1ccc(O)cc1 [COUMARIC ACID] | 58 | Active | 57 | 58 | 5 (≈ 821 µg/mL) | 5 (≈ 821 µg/mL) | 81 |  | 100 | inactive | 5 (≈ 821 µg/mL) | inactive | 5 (≈ 821 µg/mL) | 71 |  |  | growth inhibition (GI) (Diplodia seriata [24]): Active; inhibition at 1000 µM (Diplodia seriata [25]): 71%; growth inhibition (GI) (Botryosphaeria dothidea [26]): Active; inhibition at 1000 µM (Neofusicoccum ribis [12]): 71%; inhibition at 1000 µM (Botryosphaeria dothidea [22]; 96 h): 71% |
| COc1cccc(OC)c1C(=O)O [2,6-DIMETHOXYBENZOIC ACID] | 58 | Active | 57 | 58 | 5 (≈ 911 µg/mL) | 5 (≈ 911 µg/mL) | 86 |  | 62 | inactive | 5 (≈ 911 µg/mL) | inactive | 5 (≈ 911 µg/mL) | 58 | 50 |  | inhibition (Botryosphaeria dothidea [1]): inactive; inhibition of growth at 25000 µM (Botryosphaeria dothidea [23]): 95%; inhibition of growth at 25000 µM (Diplodia seriata [27]): 95% |
| Oc1ccccc1O [CATECHOL] | 58 |  | 57 | 58 | 5 (≈ 551 µg/mL) | 5 (≈ 551 µg/mL) |  | Active |  | inactive | 5 (≈ 551 µg/mL) | inactive | 5 (≈ 551 µg/mL) | 58 | 100 | Active | growth inhibition (GI) (Botryosphaeria dothidea [28]): Active; inhibition of growth at 20000 µM (Lasiodiplodia theobromae [29]): 100% |
| COc1cccc(OC)c1O [SYRINGOL] | 58 | Active | 57 | 58 | 5 (≈ 771 µg/mL) | 5 (≈ 771 µg/mL) |  | Active |  | inactive | 5 (≈ 771 µg/mL) | inactive | 5 (≈ 771 µg/mL) | 58 | 50 |  | growth inhibition (GI) (Neofusicoccum ribis [30]): Active; inhibition of growth at 15000 µM (Lasiodiplodia theobromae [20]): 100%; growth inhibition (GI) (Botryosphaeria dothidea [28]): Active |
| COc1cc(C(=O)O)cc(OC)c1O [SYRINGIC ACID] |  |  | 57 |  |  |  |  |  |  | inactive |  | inactive |  | 58 |  |  | inhibition (Diplodia seriata [2]): inactive; inhibition (Lasiodiplodia theobromae [5]): inactive; MIC (Diplodia seriata [6]): inactive; MIC (Lasiodiplodia theobromae [7]): inactive; inhibition (Diplodia seriata [31]): Active; MIC (Neofusicoccum ribis [13]): inactive; MIC (Botryosphaeria dothidea [15]): inactive |
| O=C(O)c1ccccc1 [BENZOIC ACID] |  |  | 57 |  | 5 (≈ 611 µg/mL) | 5 (≈ 611 µg/mL) |  |  |  | inactive | 5 (≈ 611 µg/mL) | inactive | 5 (≈ 611 µg/mL) | 58 | 50 | Active | growth inhibition (GI) (Diplodia seriata [24]): Active; inhibition at 25000 µM (Botryosphaeria dothidea [32]): 96%; MIC (Phellinus tremulae): 800 µg/mL (≈ 6.55 mM); growth inhibition (GI) (Botryosphaeria dothidea [26]): Active; inhibition (Diplodia seriata [31]): Active; inhibition of growth at 20000 µM (Lasiodiplodia theobromae [29]): 100% |
